From the NIST ThermoML archive (doi:10.1021/je050182i)
Several values for one entry are separate records, joined by “and”; a condition that tells them apart may be missing. Equal values may be shown once. ± gives the expanded uncertainty stated by the source.

Settings: Liquid

For `CCCCCCCCCCCCCCCCCCCCCCC` [tricosane], the “vapor or sublimation pressure” value (412.18 K) was 0.0129 ± 0.0005 kPa, the “vapor or sublimation pressure” value (422.26 K) was 0.0248 ± 0.001 kPa and the “vapor or sublimation pressure” value (422.29 K) was 0.0247 ± 0.001 kPa. The “vapor or sublimation pressure” value (432.34 K) was 0.0461 ± 0.0019 kPa, the “vapor or sublimation pressure” value (442.33 K) was 0.0839 ± 0.0034 kPa and the “vapor or sublimation pressure” value (452.22 K) was 0.143 ± 0.006 kPa. For the same compound, the “vapor or sublimation pressure” value (461.99 K) was 0.242 ± 0.01 kPa.

With `CCCCCCCCCCCCCCCCCCCCCCCCCCCCC` [nonacosane] the “vapor or sublimation pressure” value (422.1 K) was 0.00097 ± 5.3e-05 kPa and 0.000971 ± 5.3e-05 kPa, the “vapor or sublimation pressure” value (432.12 K) was 0.00206 ± 0.0001 kPa and the “vapor or sublimation pressure” value (442.17 K) was 0.00421 ± 0.00018 kPa. For the same compound, the “vapor or sublimation pressure” value (442.19 K) was 0.00417 ± 0.00018 kPa, the “vapor or sublimation pressure” value (452.2 K) was 0.00824 ± 0.00035 kPa and the “vapor or sublimation pressure” value (452.23 K) was 0.00819 ± 0.00035 kPa.

With `CCCCCCCCCCCCCCCCCCCCC` [heneicosane] the “vapor or sublimation pressure” value (351.54 K) was 0.000396 ± 3.1e-05 kPa, the “vapor or sublimation pressure” value (361.52 K) was 0.000971 ± 5.3e-05 kPa and the “vapor or sublimation pressure” value (371.42 K) was 0.0022 ± 0.0001 kPa. The “vapor or sublimation pressure” value (381.65 K) was 0.00498 ± 0.00021 kPa, the “vapor or sublimation pressure” value (391.86 K) was 0.0106 ± 0.0004 kPa and the “vapor or sublimation pressure” value (402.05 K) was 0.0213 ± 0.0009 kPa. For the same compound, the “vapor or sublimation pressure” value (422.19 K) was 0.0751 ± 0.0031 kPa, the “vapor or sublimation pressure” value (432.27 K) was 0.133 ± 0.005 kPa and the “vapor or sublimation pressure” value (442.3 K) was 0.228 ± 0.009 kPa. The “vapor or sublimation pressure” value (452.22 K) was 0.378 ± 0.015 kPa and the “vapor or sublimation pressure” value (461.96 K) was 0.611 ± 0.025 kPa.

With `CCCCCCCCCCCCCCCCCCCCCCCCC` [pentacosane] the “vapor or sublimation pressure” value (381.69 K) was 0.000331 ± 2.8e-05 kPa, the “vapor or sublimation pressure” value (391.91 K) was 0.000783 ± 4.6e-05 kPa and the “vapor or sublimation pressure” value (402.03 K) was 0.00178 ± 9e-05 kPa. The “vapor or sublimation pressure” value (411.75 K) was 0.00383 ± 0.00017 kPa, the “vapor or sublimation pressure” value (411.78 K) was 0.00383 ± 0.00017 kPa and the “vapor or sublimation pressure” value (422.02 K) was 0.00802 ± 0.00034 kPa. The “vapor or sublimation pressure” value (432.21 K) was 0.0158 ± 0.0007 kPa, the “vapor or sublimation pressure” value (442.33 K) was 0.0296 ± 0.0012 kPa and the “vapor or sublimation pressure” value (442.34 K) was 0.0299 ± 0.0012 kPa. The “vapor or sublimation pressure” value (452.24 K) was 0.0541 ± 0.0022 kPa, the “vapor or sublimation pressure” value (452.25 K) was 0.0534 ± 0.0022 kPa and the “vapor or sublimation pressure” value (461.95 K) was 0.0926 ± 0.0038 kPa. For the same compound, the “vapor or sublimation pressure” value (461.98 K) was 0.0923 ± 0.0038 kPa and 0.0938 ± 0.0038 kPa.

In the case of `CCCCCCCCCCCCCCCCCCCCCCCCCCCCCC` [triacontane], the “vapor or sublimation pressure” value (432.36 K) is reported as 0.00115 ± 6e-05 kPa, the “vapor or sublimation pressure” value (432.37 K) is reported as 0.00113 ± 6e-05 kPa and the “vapor or sublimation pressure” value (442.48 K) is reported as 0.00233 ± 0.00011 kPa. The “vapor or sublimation pressure” value (452.32 K) was 0.00457 ± 0.0002 kPa and the “vapor or sublimation pressure” value (452.34 K) was 0.00451 ± 0.0002 kPa.

For `CCCCCCCCCCCCCCCCCCCCCCCCCCC` [heptacosane], the “vapor or sublimation pressure” value (401.68 K) was 0.000592 ± 3.8e-05 kPa, the “vapor or sublimation pressure” value (401.69 K) was 0.00059 ± 3.8e-05 kPa and the “vapor or sublimation pressure” value (411.78 K) was 0.00129 ± 7e-05 kPa. The “vapor or sublimation pressure” value (411.81 K) was 0.0013 ± 7e-05 kPa, the “vapor or sublimation pressure” value (421.93 K) was 0.00269 ± 0.00012 kPa and the “vapor or sublimation pressure” value (421.95 K) was 0.00272 ± 0.00012 kPa. For the same compound, the “vapor or sublimation pressure” value (432.03 K) was 0.00556 ± 0.00024 kPa, the “vapor or sublimation pressure” value (442.18 K) was 0.011 ± 0.0005 kPa and the “vapor or sublimation pressure” value (452.27 K) was 0.0214 ± 0.0009 kPa. The “vapor or sublimation pressure” value (462.27 K) was 0.0405 ± 0.0017 kPa and 0.0401 ± 0.0016 kPa.
